Assay results published in ChEMBL document CHEMBL3875185, “Structure-anticonvulsant activity studies in the group of (E)-N-cinnamoyl aminoalkanols derivatives monosubstituted in phenyl ring with 4-Cl, 4-CH3 or 2-CH3” (Bioorg Med Chem, 2017).
Calls of active or inactive are those of the source. The calls are words filed in the database; no cut-off is given here.

How the values were obtained:
[1] = tested on: Mus musculus; test: Anticonvulsant activity in ip dosed 6-Hz induced seizure mouse model assessed as restoration of normal activity within 10 secs from stimulation at 32 mA; format: functional
[2] = tested on: Mus musculus; test: Anticonvulsant activity in ip dosed pentylenetetrazole induced seizure mouse model; format: functional
[3] = tested on: Rattus norvegicus; test: Anticonvulsant activity in po dosed pentylenetetrazole induced seizure Sprague-Dawley rat model assessed as no observable episode of clonic convulsion of at least 5 secs; format: functional
[4] = tested on: Mus musculus; test: Anticonvulsant activity in ip dosed maximal electroshock induced seizure mouse model assessed as suppression in hindlimb tonic extension by measuring time to peak effect; format: functional
[5] = tested on: Mus musculus; test: Anticonvulsant activity in maximal electroshock induced seizure mouse model assessed as suppression in hindlimb tonic extension at 100 mg/kg, ip measured at 0.5 hrs post dose; format: functional, organism-based
[6] = tested on: Mus musculus; test: Neurotoxicity in mouse assessed as induction of motor impairment at 100 mg/kg, ip measured at 0.5 hrs post dose by rotarod method; format: toxicity, organism-based; conditions: in vivo
[7] = tested on: Mus musculus; test: Neurotoxicity in ip dosed mouse assessed as induction of motor impairment by measuring time to peak effect by rotarod method; format: toxicity, organism-based; conditions: in vivo
[8] = tested on: Mus musculus; test: Anticonvulsant activity in ip dosed maximal electroshock induced seizure mouse model assessed as suppression in hindlimb tonic extension; format: functional
[9] = Neurotoxicity in ip dosed mouse; format: toxicity, organism-based; conditions: in vivo
[10] = Protection index, ratio of TD50 for neurotoxicity in ip dosed mouse to ED50 for ip dosed maximal electroshock induced seizure mouse model; format: toxicity, organism-based; conditions: in vivo, read-out: Ratio TD50/ED50
[11] = tested on: Mus musculus; test: Neurotoxicity in mouse assessed as induction of motor impairment at 100 mg/kg, ip measured at 4 hrs post dose by rotarod method; format: toxicity, organism-based; conditions: in vivo
[12] = tested on: Rattus norvegicus; test: Neurotoxicity in Sprague-Dawley rat assessed as behavioral change at 30 mg/kg, ip measured at […] post dose; format: toxicity, organism-based; conditions: in vivo
[13] = tested on: Rattus norvegicus; test: Neurotoxicity in Sprague-Dawley rat assessed as behavioral change at 30 mg/kg, ip measured at 0.5 hrs post dose; format: toxicity, organism-based; conditions: in vivo
[14] = tested on: Rattus norvegicus; test: Neurotoxicity in Sprague-Dawley rat assessed as behavioral change at 30 mg/kg, ip measured at 1 hr post dose; format: toxicity, organism-based; conditions: in vivo
[15] = tested on: Rattus norvegicus; test: Neurotoxicity in Sprague-Dawley rat assessed as behavioral change at 30 mg/kg, ip measured at 2 hrs post dose; format: toxicity, organism-based; conditions: in vivo
[16] = tested on: Rattus norvegicus; test: Neurotoxicity in Sprague-Dawley rat assessed as behavioral change at 30 mg/kg, ip measured at 4 hrs post dose; format: toxicity, organism-based; conditions: in vivo
[17] = tested on: Mus musculus; test: Anticonvulsant activity in maximal electroshock induced seizure mouse model assessed as suppression in hindlimb tonic extension at 300 mg/kg, ip measured at 0.5 hrs post dose; format: functional, organism-based
[18] = tested on: Mus musculus; test: Anticonvulsant activity in maximal electroshock induced seizure mouse model assessed as suppression in hindlimb tonic extension at 300 mg/kg, ip measured at 4 hrs post dose; format: functional, organism-based
[19] = tested on: Mus musculus; test: Anticonvulsant activity in pentylenetetrazole induced seizure mouse model assessed as no observable episode of clonic convulsion of at least 5 secs at 100 mg/kg, ip measured at 0.5 hrs post dose; format: functional, organism-based
[20] = tested on: Mus musculus; test: Anticonvulsant activity in pentylenetetrazole induced seizure mouse model assessed as no observable episode of clonic convulsion of at least 5 secs at 300 mg/kg, ip measured at 0.5 hrs post dose; format: functional, organism-based
[21] = tested on: Mus musculus; test: Neurotoxicity in mouse assessed as induction of motor impairment at 30 mg/kg, ip measured at 0.5 hrs post dose by rotarod method; format: toxicity, organism-based; conditions: in vivo
[22] = tested on: Mus musculus; test: Neurotoxicity in mouse assessed as induction of motor impairment at 300 mg/kg, ip measured at 0.5 hrs post dose by rotarod method; format: toxicity, organism-based; conditions: in vivo
[23] = tested on: Mus musculus; test: Neurotoxicity in mouse assessed as induction of motor impairment at 30 mg/kg, ip measured at 4 hrs post dose by rotarod method; format: toxicity, organism-based; conditions: in vivo
[24] = tested on: Rattus norvegicus; test: Neurotoxicity in Sprague-Dawley rat assessed as behavioral change at 30 mg/kg, po measured at […] post dose; format: toxicity, organism-based; conditions: in vivo
[25] = tested on: Mus musculus; test: Neurotoxicity in mouse assessed as induction of motor impairment at 300 mg/kg, ip measured at 4 hrs post dose by rotarod method; format: toxicity, organism-based; conditions: in vivo
[26] = tested on: Rattus norvegicus; test: Neurotoxicity in Sprague-Dawley rat assessed as behavioral change at 30 mg/kg, po measured at 1 hr post dose; format: toxicity, organism-based; conditions: in vivo
[27] = tested on: Rattus norvegicus; test: Neurotoxicity in Sprague-Dawley rat assessed as behavioral change at 30 mg/kg, po measured at 0.5 hrs post dose; format: toxicity, organism-based; conditions: in vivo
[28] = tested on: Rattus norvegicus; test: Neurotoxicity in Sprague-Dawley rat assessed as behavioral change at 30 mg/kg, po measured at 2 hrs post dose; format: toxicity, organism-based; conditions: in vivo
[29] = tested on: Rattus norvegicus; test: Neurotoxicity in Sprague-Dawley rat assessed as behavioral change at 30 mg/kg, po measured at 4 hrs post dose; format: toxicity, organism-based; conditions: in vivo
[30] = tested on: Mus musculus; test: Anticonvulsant activity in 6-Hz induced seizure mouse model assessed as restoration of normal activity within 10 secs from stimulation at 100 mg/kg, ip at 32 mA measured at […] post dose; format: functional, organism-based
[31] = tested on: Mus musculus; test: Anticonvulsant activity in 6-Hz induced seizure mouse model assessed as restoration of normal activity within 10 secs from stimulation at 100 mg/kg, ip at 32 mA measured at 0.5 hrs post dose; format: functional, organism-based
[32] = tested on: Mus musculus; test: Anticonvulsant activity in maximal electroshock induced seizure mouse model assessed as suppression in hindlimb tonic extension at 30 mg/kg, ip measured at 4 hrs post dose; format: functional, organism-based
[33] = tested on: Mus musculus; test: Anticonvulsant activity in maximal electroshock induced seizure mouse model assessed as suppression in hindlimb tonic extension at 100 mg/kg, ip measured at 4 hrs post dose; format: functional, organism-based

With `NC(=O)N1c2ccccc2C=Cc2ccccc21` [CARBAMAZEPINE] the ED50 [1] was 47.9 mg/kg, the ED50 [2] was over 50 mg/kg and the ED50 [3] was over 250 mg/kg.
In the case of `CC[C@@H](CO)NC(=O)/C=C/c1ccc(Cl)cc1`, the Time [4] is reported as 0.25 h, the Activity [5] is reported as “Active” and the Activity [6] is reported as “Toxic”. The Time [7] was 0.25 h, the ED50 [8] was 43.3 mg/kg and the TD50 [9] was 56.4 mg/kg. The selectivity ratio [10] was 1.3.
In the case of `CCC(O)CNC(=O)/C=C/c1ccc(C)cc1` (configuration not stated), the Activity [6] is reported as “Non-Toxic”, the Activity [11] is reported as “Non-Toxic” and the Activity [12] is reported as “Non-Toxic”. The Activity [13] was “Non-Toxic”, the Activity [14] was “Non-Toxic” and the Activity [15] was “Non-Toxic”. The Activity [16] was “Non-Toxic”.
In the case of `Cc1ccccc1/C=C/C(=O)NCC(C)O` (configuration not stated), the Activity [5] is reported as “Active”, the Activity [17] is reported as “Active” and the Activity [18] is reported as “Active”. The Activity [19] was “Active”, the Activity [20] was “Active” and the Activity [21] was “Non-Toxic”. For the same molecule, the Activity [22] was “Toxic”, the Activity [23] was “Non-Toxic” and the Activity [11] was “Non-Toxic”.
In the case of `CC[C@@H](CO)NC(=O)/C=C/c1ccccc1C`, the Activity [24] is reported as “Non-Toxic”, the Activity [5] is reported as “Active” and the Activity [17] is reported as “Active”. The Activity [20] was “Active”, the Activity [21] was “Non-Toxic” and the Activity [6] was “Non-Toxic”. For the same molecule, the Activity [22] was “Toxic”, the Activity [23] was “Non-Toxic” and the Activity [11] was “Non-Toxic”. For the same molecule, the Activity [25] was “Non-Toxic”, the Activity [26] was “Non-Toxic” and the Activity [27] was “Non-Toxic”. For the same molecule, the Activity [28] was “Non-Toxic” and the Activity [29] was “Non-Toxic”.
With `Cc1ccccc1/C=C/C(=O)N[C@H](C)CO` the Activity [24] was “Non-Toxic”, the Activity [17] was “Active” and the Activity [20] was “Active”. The Activity [21] was “Non-Toxic”, the Activity [6] was “Non-Toxic” and the Activity [22] was “Toxic”. For the same molecule, the Activity [23] was “Non-Toxic”, the Activity [11] was “Non-Toxic” and the Activity [25] was “Non-Toxic”. For the same molecule, the Activity [30] was “Active”, the Activity [31] was “Active” and the Activity [26] was “Non-Toxic”. The Activity [27] was “Non-Toxic”, the Activity [28] was “Non-Toxic” and the Activity [29] was “Non-Toxic”.
For `CC(CO)NC(=O)/C=C/c1ccc(Cl)cc1` (configuration not stated), the Activity [24] was “Non-Toxic”, the Activity [5] was “Active” and the Activity [17] was “Active”. The Activity [18] was “Active”, the Activity [19] was “Active” and the Activity [20] was “Active”. The Activity [21] was “Non-Toxic”, the Activity [22] was “Toxic” and the Activity [23] was “Non-Toxic”. The Activity [11] was “Non-Toxic”, the Activity [26] was “Non-Toxic” and the Activity [27] was “Non-Toxic”. The Activity [28] was “Non-Toxic” and the Activity [29] was “Non-Toxic”.
For `Cc1ccccc1/C=C/C(=O)N[C@H]1CC[C@H](O)CC1`, the Activity [24] was “Non-Toxic”, the Activity [32] was “Active” and the Activity [33] was “Active”. For the same molecule, the Activity [18] was “Active”, the Activity [21] was “Non-Toxic” and the Activity [23] was “Non-Toxic”. The Activity [25] was “Non-Toxic”, the Activity [26] was “Non-Toxic” and the Activity [27] was “Non-Toxic”. The Activity [28] was “Non-Toxic” and the Activity [29] was “Non-Toxic”.
In the case of `CC[C@H](CO)NC(=O)/C=C/c1ccc(Cl)cc1`, the Time [4] is reported as 0.25 h, the Activity [5] is reported as “Active” and the Activity [6] is reported as “Toxic”. It also gave a Time [7] of 0.25 h, an ED50 [8] of 27.3 mg/kg and a TD50 [9] of 105 mg/kg. It also gave a selectivity ratio [10] of 3.85.
